Structures can show the parent of a compound that is named as a salt.
Molecular target: T1, Amyloid-beta(1-42) oligomer binding to heparin (HS-GAG) (Homo sapiens, UniProt P05067)
T1 construct: Beta-amyloid (1-42) was purchased from rPeptide (Cat. No. A1163); purchased rPeptide A1163
Experiment: Inhibition of Amyloid-beta(1-42) oligomer binding to immobilized heparin-BSA (ELISA)
Design: species or system porcine
Details: 30 μM compound; Abeta(1-42) oligomers, heparin-BSA; read-out: Abeta42/Heparin Activity (% inhibition class)
Description: Porcine intestinal mucosa heparin conjugated to Bovine Serum Albumin (Heparin-BSA) was prepared as described (Najjam, S. et al. 1997, Cytokine 12, 1013-1022). Heparin is a sulfated HS-GAG and is commonly used as a HS-GAG in biochemical and binding assays (Lindahl, U. and Kjellen, L. (2013) ibid). Heparin-BSA at 0.01 mg/ml in Phosphate Buffered Saline (PBS; pH 7.4) was added to a 96 well polystyrene ELISA plate (NUNC Cat. No. 449824; 100 μl per well) and incubated Over Night (ON) at 4 degrees Celsius. For negative controls, ELISA plates were coated with BSA instead of Heparin-BSA, using the same procedure. Following the incubation, the plate was washed consecutively, by immersion, with de-ionized water and PBS (pH 7.4). The ELISA plate was then blocked with nonfat milk (2%, 200 μl per well) for 2 hours at Room Temperature (RT) with gentle shaking. Following blocking, the plate was washed with de-ionized water then PBS (pH 7.4). GBAPs were dissolved and diluted in PBS (pH 6.5, supplemented with 0.1% BSA) at desired concentrations, added to the ELISA plates containing immobilized Heparin-BSA (100 μl per well) and incubated for 2 hours at RT with gentle shaking. Following incubation, the plate was washed with de-ionized water and three times with PBS (pH 6.5) plus Tween. Bound GBAP was detected by a monoclonal antibody specific for that GBAP, followed by incubation with secondary antibody conjugated to horseradish peroxidase (HRP). Antibody was diluted in PBS (pH 6.5 supplemented with 1% BSA). Following each incubation with antibody, the plate was washed with de-ionized water and three times with PBS (pH 6.5) wash buffer containing 0.1% Tween. The peroxidase substrate chromogen, TMB (Dako Cat. No. S1599) was added (100 μl per well) to the ELISA plate and incubated at room temperature. After 5 minutes ELISA Stop Solution (hydrochloric acid 1N, sulfuric acid 3N) was added (100 μl per well) to stop the peroxidase catalyzed colorimetric reaction. The Optical Density of the samples was measured at 450 nm using an ELISA plate reader (BioTek Synergy H1). Following color development, the % inhibition compared to control (BSA-coated plates) was determined. IC-50s were calculated using GraphPad Prism software.
The assay was performed as described in Example 43, with the following modifications. Following to coating the plates with Heparin-BSA, plates were washed as described. The compounds were dissolved in DMSO at 10 mM final concentration and further diluted prior to assay. DMSO concentration in the screening well was up to 2%. Individual compounds were co-incubated with Beta-amyloid peptides on plates containing immobilized heparin. Beta-amyloid (1-42) was purchased from rPeptide (Cat. No. A1163) and used to prepare oligomers according to Stine et al., 2003 (J Biol Chem. 278(13):11612-22) as follows. 1,1,1,3,3,3-Hexafluoro-2-propanol- (HFIP; Sigma Cat. No. 105228)-treated Beta amyloid (1-42) was dissolved in dry DMSO (Sigma Cat. No. D2650) to 5 mM concentration. Dissolved Beta amyloid (1-42) was then diluted to 100 μM in ice-cold cell culture medium (phenol red-free Ham's F-12; Caisson Labs, Cat. No. HFL05), followed immediately by vortexing for 30 seconds, and incubating at 4 degrees Celsius for 24 h. Resulting Beta amyloid (1-42) oligomers were centrifuged at 12,000 rpm for 10 min at 4 degree Celsius to remove aggregates. Oligomers were then quickly frozen and kept in aliquots at −80 degrees Celsius. Beta-amyloid (1-40) from rPeptide (Cat No. A1153) was dissolved in DMSO, quickly frozen and kept in aliquots at −80 degrees Celsius. Beta-amyloid (1-42) oligomers or Beta-amyloid (1-40) diluted in PBS (pH 6.5, supplemented with BSA, 0.1%) were added to the ELISA plate (100 μl per well) and incubated for 2 hours at RT with gentle shaking. Following the incubation, the plate was washed with de-ionized water and three times with PBS (pH 6.5) plus Tween. […]

T1 sequence (P05067 672-713): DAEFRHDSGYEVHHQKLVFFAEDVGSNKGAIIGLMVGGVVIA

`Cc1cn(-c2ccc(Nc3cncc4cc(Cl)ccc34)cn2)c(C)n1` [Compound 37, 7-chloro-N-(6-(2,4-dimethyl-1H-imidazol-1-yl)pyridin-3-yl)isoquinolin-4-amine phosphoric acid salt] and `C[n+]1ccn(-c2ccc(Nc3ncnc4cc(Cl)ccc34)cn2)c1` [Compound 43, 1-(5-((7-chloroquinazolin-4-yl)amino)pyridin-2-yl)-3-methyl-1H-imidazol-3-ium iodide phosphoric acid salt] cannot be ordered by inhibition at 30 µM: under 30% for the first, under 30% for the second.

For `CC(=NNc1ccnc2cc(Cl)ccc12)c1ccc(-n2cc[n+](C)c2)nc1` [Compound 23, 1-(5-(1-(2-(7-chloroquinolin-4-yl)hydrazineylidene)ethyl)pyridin-2-yl)-3-methyl-1H-imidazol-3-ium iodide], the inhibition at 30 µM was under 30%.

Same assay, conditions: Abeta(1-42) oligomers, co-incubation on heparin-BSA plates; read-out: Abeta42/Heparin Activity (IC-50)

`CC(=NNc1ccnc2cc(Cl)ccc12)c1ccc(-n2ccnc2)cc1` [Compound 36, 4-(2-(1-(4-(1H-imidazol-1-yl)phenyl)ethylidene)hydrazineyl)-7-chloroquinoline phosphate] and `C/C(=N\Nc1ncnc2cc(Cl)ccc12)c1ccc(-n2cc[n+](C)c2)nc1` [Compound 17, (E)-1-(5-(1-(2-(7-chloroquinazolin-4-yl)hydrazineylidene)ethyl)pyridin-2-yl)-3-methyl-1H-imidazol-3-ium iodide phosphoric acid salt] are within 1.5-fold of each other in IC50: 14.2 µM for the first, 11.7 µM for the second.

`C[N+](C)(C)Cc1ccc(/C=N\Nc2ccnc3ccc(Cl)cc23)cc1` [Compound 4, (Z)-1-(4-((2-(6-chloroquinolin-4-yl)hydrazineylidene)methyl)phenyl)—N,N,N-trimethylmethanaminium iodide] and `Clc1ccc2c(Nc3ccc(-n4cncn4)nc3)ccnc2c1` [Compound 44, N-(6-(1H-1,2,4-triazol-1-yl)pyridin-3-yl)-7-chloroquinolin-4-amine] are within 1.5-fold of each other in IC50: 42.7 µM for the first, 35.7 µM for the second.

`Cc1ncn(-c2ccc(Nc3ncnc4cc(Cl)ccc34)cn2)c1C` [Compound 25, 7-chloro-N-(6-(4,5-dimethyl-1H-imidazol-1-yl)pyridin-3-yl)quinazolin-4-amine] and `Cc1ncn(-c2ncc(Nc3ncnc4cc(Cl)ccc34)cc2O)c1C` [Compound 40, 5-((7-chloroquinazolin-4-yl)amino)-2-(4,5-dimethyl-1H-imidazol-1-yl)pyridin-3-ol phosphoric acid salt] are within 1.5-fold of each other in IC50: 9.9 µM for the first, 8.65 µM for the second.

First: C/C(=N\Nc1nncc2cc(Cl)ccc12)c1ccc(-n2cc(C)nc2C)nc1 [Compound 24, (E)-6-chloro-1-(2-(1-(6-(2,4-dimethyl-1H-imidazol-1-yl)pyridin-3-yl)ethylidene)hydrazineyl)phthalazine]
Second: C/C(=N\Nc1ncnc2cc(F)ccc12)c1ccc(-n2cnc(C)c2C)nc1 [Compound 21, (E)-4-(2-(1-(6-(4,5-dimethyl-1H-imidazol-1-yl)pyridin-3-yl)ethylidene)hydrazineyl)-7-fluoroquinazoline]
The IC50 of the first is 1.8-fold higher: 16.9 µM for the first, 9.5 µM for the second.

Same assay, conditions: read-out: Abeta42/Heparin Activity (% inhibition class)

`C(=N\Nc1ccc2c3c(cccc13)CC2)/c1ccc(-n2ccnc2)cc1` [Compound 8, (E)-1-(4-((2-(1,2-dihydroacenaphthylen-5-yl)hydrazineylidene)methyl)phenyl)-1H-imidazole] and `COc1ccc2c(NN=Cc3ccc(-n4ccnc4)c(C)c3)ccnc2c1` [Compound 12, 4-(2-(4-(1H-imidazol-1-yl)-3-methylbenzylidene)hydrazineyl)-7-methoxyquinoline] cannot be ordered by inhibition at 30 µM: under 30% for the first, under 30% for the second.

First: C/C(=N\Nc1ncnc2cc(Cl)ccc12)c1cccc(N2CCN(C)CC2)c1 [Compound 30, 7-chloro-4-(2-(1-(3-(4-methylpiperazin-1-yl)phenyl)ethylidene)hydrazineyl)quinazoline]
Second: C/C(=N\Nc1ncnc2ccccc12)c1ccc(-n2cc(C)nc2C)nc1 [Compound 19, (E)-4-(2-(1-(6-(2,4-dimethyl-1H-imidazol-1-yl)pyridin-3-yl)ethylidene)hydrazineyl)quinazoline]
The inhibition at 30 µM of the first is higher: over 30% for the first, under 30% for the second.

— US20240398783A1, “Compounds and Pharmaceutical Compositions Comprising Inhibitors of Amyloid Peptide Interactions with Glycosaminoglycans, Methods of Treatment and Use Thereof” (Gismo Therapeutics, Inc., priority 2021, published 2024)
